Data: patent US20230381159A1 (priority 2020, published 2023)

Tested on: SARS-CoV-2 pseudovirus (VSV-ΔG) entry into ACE2/Furin expressing host cells (Vero-E6)
Assay: microbe, parasite or virus in culture
Assay type: cell-based, SARS-CoV-2 pseudovirus / African Green Monkey cells
Details: Severe acute respiratory syndrome-related coronavirus, Vero C1008, 20 h, read-out: IC50, inhibition of pseudovirus entry (VSV-ΔG)

Row | Compound | IC50 [µM]
1 | O=C(Nc1ccc(-c2ccc(C(=O)Nc3cccc4cc(S(=O)(=O)O)ccc34)cc2)cc1)c1ccc([N+](=O)[O-])cc1 [Compound A2, 5-(4′-(4-Nitrobenzamido)biphenyl-4-ylcarboxamido)naphthalene-2-sulfonic acid] | 7
2 | Nc1c(/N=N/c2ccc(-c3ccc(/N=N/c4cc(S(=O)(=O)O)c5ccccc5c4N)cc3)cc2)cc(S(=O)(=O)O)c2ccccc12 [Congo red] | 16
